Where two headings read alike, the source gives them in different places.
Legend:
[1] = test system: tubercular bacteria; conditions: tests in vitro; cited from earlier work
[2] = assay type: physicochemical
Method: The acceleration of the isomerization in accordance with the present invention is particularly striking at pH values of between 4 and 8. […] For the characterization of this acceleration of the conversion of humulone to isohumulone, reaction-kinetic experiments at different temperatures are shown in the accompanying figures. As reaction media there is used an 0.1 and 0.025 molar sodium acetate solution to which there are added in each case the metal salts in concentrations of 10^^-3 mol/liter and 10^^-4 mol/liter, respectively. Furthermore, pure metal salt solutions of higher concentration (0.025 mol/liter) (FIG. 2) of different pH were also used for the conversion of the humulone.
By way of comparison, the slow isomerization reaction in pure phosphate buffers is also recorded. It should be emphasized that the sodium acetate in the reaction solutions is not necessary for the reaction itself, but merely serves to maintain the pH constant. […] For FIGS. 1 and 2, the logarithm of the humulone extinction measured in a spectral photometer was plotted against the reaction time (in accordance with the law of Lambert and Beer, the extinction is directly proportional to the concentration).

| Compound | activity compared with Conteben [1] | Half-Life ([2]; acetate buffer + cacl2, pH 8) [min] | Half-Life ([2]; acetate buffer + cdcl2, pH 7) [min] | Half-Life ([2]; acetate buffer + mgcl2, pH 7.5) [min] | Half-Life ([2]; acetate buffer + mgcl2, pH 8) [min] | Half-Life ([2]; acetate buffer + mncl2, pH 7.5) [min] | Half-Life ([2]; acetate buffer + niso4, pH 6.5) [min] | Half-Life ([2]; acetate buffer, pH 7) [min] | Half-Life ([2]; phosphate buffer, pH 5.5) [min] | Half-Life about (bacl2 solution, pH 6.9) [min] | Half-Life about (cacl2 solution, pH 6.6) [min] | Half-Life about (cecl3 solution, pH 4.2) [min] | Half-Life about (niso4 solution, pH 4.7) [min] | Half-Life about (phosphate buffer, pH 5.5) [min] | Half-Life about (phosphate buffer, pH 7.2) [min] |
| --- | --- | --- | --- | --- | --- | --- | --- | --- | --- | --- | --- | --- | --- | --- | --- |
| CC(C)=CCC(=O)C1(O)C(O)=C(C(=O)CC(C)C)C(=O)C1CC=C(C)C (stereo not drawn) [isohumulone] | practically just as active as Conteben |  |  |  |  |  |  |  |  |  |  |  |  |  |  |
| humulone |  | 22 | 5.9 | 7.3 | 2.6 | 3.2 | 2.5 | 360 | 120 | ~9 | ~2 | ~10 | ~0.7 | ~100 | ~100 |
